25 molecules from patent US8912216B2, “Hetaryl-[1,8]naphthyridine derivatives” (Merck Patent GmbH, priority 2010, dated 2014) can be followed below.

The target in one experiment is T1, GST-ALK5 (Homo sapiens, UniProt P36897).
T1 sequence (P36897 34-503): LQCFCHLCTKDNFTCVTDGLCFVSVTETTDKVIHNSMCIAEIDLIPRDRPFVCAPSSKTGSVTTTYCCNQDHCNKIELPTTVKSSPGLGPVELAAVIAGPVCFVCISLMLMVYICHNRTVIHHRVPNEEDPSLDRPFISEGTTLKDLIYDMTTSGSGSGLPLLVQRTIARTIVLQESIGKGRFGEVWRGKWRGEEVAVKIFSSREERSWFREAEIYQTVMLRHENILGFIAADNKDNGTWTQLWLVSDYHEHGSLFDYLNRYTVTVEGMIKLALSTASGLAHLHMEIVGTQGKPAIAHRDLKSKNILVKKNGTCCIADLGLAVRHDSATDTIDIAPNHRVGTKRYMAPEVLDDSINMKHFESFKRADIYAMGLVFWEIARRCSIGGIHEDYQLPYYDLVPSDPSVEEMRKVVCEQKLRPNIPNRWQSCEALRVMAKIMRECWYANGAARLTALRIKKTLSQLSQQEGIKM
Briefly: In-vitro (enzyme) kinase assay, 384-well flashplate (Example 36). It counts as biochemical. The following applies: GST-ALK5, GST-SMAD2 substrate, 3 mM ATP, 30° C., 45 min; read-out: TβR activity (Example 36). The essentials:
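Radiometric flashplate assay: 31.2 nM GST-ALK5 phosphorylating 439 nM GST-SMAD2 with 3 mM ATP plus ³³P-ATP, in HEPES/MgCl2/MnCl2/DTT/BSA buffer pH 7.4, 45 min at 30 °C, 5-10 compound concentrations. EDTA stop, filtration and washing, then radioactivity counted; IC50 derived from the curve.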

Experiment [1] deals with TGF-beta-induced phosphorylation of Smad2 and Smad3 in Mv1-Lu cells. Briefly: Inhibition of Smad2/3 phosphorylation in Mv1Lu cells (Example 35A). It counts as cell-based, mink Mustela vison. The following applies: Neogale vison, read-out: TβR activity (Example 35A). The essentials: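 Serum-starved (16-20 h) Mv1-Lu mink lung epithelial cells were pre-incubated 1.5 h with compound dilutions (0.2% DMSO), then stimulated 1 h with 5 ng/ml TGF-beta 1. Phospho-Smad2 (Ser465/467)/Smad3 (Ser423/425) in lysates was measured by ELISA. IC50 came from dose-response fits between stimulated and unstimulated controls.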

Where [2] appears, read: Mv1-Lu cells, TGF-beta 1 5 ng/ml, phospho-Smad2/3 ELISA.

Each structure is given as a SMILES string. Where a name gives a salt, the structure may show the parent alone. Read-outs that look alike come from different tables or passages of the source.

For the molecule `CN1CCC(n2cc(-c3cncc(-c4cc(-c5cc(Cl)ccc5F)nc5ncccc45)c3)cn2)CC1` [compound 25, 2-(5-chloro-2-fluoro-phenyl)-4-{5-[1-(1-methyl-piperidin-4-yl)-1H-pyrazol-4-yl]-pyridin-3-yl}-[1,8]naphthyridine], the IC50 (at GST-ALK5; in experiment [1]) was less than 0.1 µM each time.
Turning to `Fc1ccc(Cl)cc1-c1cc(-c2cncc(-c3ccc(OCCN4CCOCC4)cc3)c2)c2cccnc2n1` [compound 161, 2-(5-Chloro-2-fluoro-phenyl)-4-{5-[4-(2-morpholin-4-yl-ethoxy)-phenyl]-pyridin-3-yl}-[1,8]naphthyridine], the IC50 (on GST-ALK5; in experiment [1] (setting [2])) was less than 0.1 µM in each case.
`OCCn1cc(-c2cncc(-c3cc(-c4cc(C(F)(F)F)ccc4F)nc4ncccc34)c2)cn1` [compound 37, 2-(4-{5-[2-(2-Fluoro-5-trifluoromethyl-phenyl)-[1,8]naphthyridin-4-yl]-pyridin-3-yl}-pyrazol-1-yl)-ethanol]: the IC50 is less than 0.1 µM at GST-ALK5 and 0.1 to 1 µM in experiment [1] (setting [2]).
Taken in the same sequence, the figures for `CN1CCN(c2ccc(-c3cncc(-c4cc(-c5cc(Cl)ccc5F)nc5ncccc45)c3)nn2)CC1` [compound 113, 2-(5-Chloro-2-fluoro-phenyl)-4-{5-[6-(4-methyl-piperazin-1-yl)-pyridazin-3-yl]-pyridin-3-yl}-[1,8]naphthyridine] were less than 0.1 µM and less than 0.1 µM.
In the case of `Cn1cc(-c2cncc(-c3cc(-c4ccccc4F)nc4ncccc34)c2)cn1` [compound 15, 2-(2-Fluoro-phenyl)-4-[5-(1-methyl-1H-pyrazol-4-yl)-pyridin-3-yl]-[1,8]naphthyridine], the figures for the IC50 (on GST-ALK5; in experiment [1] (setting [2])) were less than 0.1 µM and 0.1 to 1 µM, respectively.
Taken in the same sequence, the figures for `CN1CCC(n2cc(-c3cncc(-c4cc(-c5cc(C(F)(F)F)ccc5F)nc5ncccc45)c3)cn2)CC1` [compound 23, 2-(2-fluoro-5-trifluoromethyl-phenyl)-4-{5-[1-(1-methyl-piperidin-4-yl)-1H-pyrazol-4-yl]-pyridin-3-yl}-[1,8]naphthyridine] were less than 0.1 µM and less than 0.1 µM.
As for `CN1CCc2cc(-c3cncc(-c4cc(-c5cc(Cl)ccc5F)nc5ncccc45)c3)ccc21` [compound 149, 2-(5-Chloro-2-fluoro-phenyl)-4-[5-(1-methyl-2,3-dihydro-1H-indol-5-yl)-pyridin-3-yl]-[1,8]naphthyridine], the IC50 was 0.1 to 1 µM on GST-ALK5 and less than 0.1 µM in experiment [1] (setting [2]).
As to `CCN1CCC(n2cc(-c3cncc(-c4cc(-c5cc(Cl)ccc5F)nc5ncccc45)c3)cn2)CC1` [compound 46, 2-(5-Chloro-2-fluoro-phenyl)-4-{5-[1-(1-ethyl-piperidin-4-yl)-1H-pyrazol-4-yl]-pyridin-3-yl}-[1,8]naphthyridine], the IC50 (at GST-ALK5; in experiment [1] (setting [2])) was less than 0.1 µM each time.
Consider `CN1CCC(c2nc(-c3cncc(-c4cc(-c5cc(Cl)ccc5F)nc5ncccc45)c3)no2)CC1` [compound 61, 2-(5-Chloro-2-fluoro-phenyl)-4-{5-[5-(1-methyl-piperidin-4-yl)-[1,2,4]oxadiazol-3-yl]-pyridin-3-yl}-[1,8]naphthyridine], for which the IC50 at GST-ALK5 is less than 0.1 µM; in experiment [1] (setting [2]) it was 0.1 to 1 µM.
In the case of `Nc1ncc(-c2cc(-c3cc(Cl)ccc3F)nc3ncccc23)c2ccncc12` [compound 167, 4-[2-(5-Chloro-2-fluoro-phenyl)-[1,8]naphthyridin-4-yl]-[2,7]naphthyridin-1-ylamine], the IC50 (at GST-ALK5; in experiment [1] (setting [2])) was less than 0.1 µM in each case.
As for `CN1CCN(c2ccnc(-c3cncc(-c4cc(-c5cc(Cl)ccc5F)nc5ncccc45)c3)c2)CC1` [compound 132, 2-(5-Chloro-2-fluoro-phenyl)-4-[4-(4-methyl-piperazin-1-yl)-[2,3′]bipyridinyl-5′-yl]-[1,8]naphthyridine], the IC50 (on GST-ALK5; in experiment [1] (setting [2])) was less than 0.1 µM in each case.
As for `Fc1ccc(Cl)cc1-c1cc(-c2cncc(-c3ccc(CCN4CCOCC4)cc3)c2)c2cccnc2n1` [compound 153, 2-(5-Chloro-2-fluoro-phenyl)-4-{5-[4-(2-morpholin-4-yl-ethyl)-phenyl]-pyridin-3-yl}-[1,8]naphthyridine], the IC50 (on GST-ALK5; in experiment [1] (setting [2])) was less than 0.1 µM in each case.
As to `Fc1ccc(Cl)cc1-c1cc(-c2cncc(-c3ccc4c(c3)OCCO4)c2)c2cccnc2n1` [compound 134, 2-(5-Chloro-2-fluoro-phenyl)-4-[5-(2,3-dihydro-benzo[1,4]dioxin-6-yl)-pyridin-3-yl]-[1,8]naphthyridine], the IC50 was 0.1 to 1 µM at GST-ALK5 and less than 0.1 µM in experiment [1] (setting [2]).
Take `CC(=O)Nc1ncc(-c2cc(-c3ccccc3F)nc3ncccc23)c2ccncc12` [compound 74, N-{4-[2-(2-fluoro-phenyl)-[1,8]naphthyridin-4-yl]-[2,7]naphthyridin-1-yl}-acetamide]: the IC50 was 0.1 to 1 µM at GST-ALK5 and 1 to 10 µM in experiment [1] (setting [2]).
Consider `Fc1ccc(Cl)cc1-c1cc(-c2cncc3ccccc23)c2ccccc2n1` [compound 1, 2-(5-Chloro-2-fluoro-phenyl)-4-isoquinolin-4-yl-quinoline], for which the IC50 (on GST-ALK5; in experiment [1] (setting [2])) was 1 to 10 µM each time.
As to `Fc1ccc(Cl)cc1-c1cc(-c2cncc(-c3cccc4c3CCNC4)c2)c2cccnc2n1` [compound 168, 2-(5-Chloro-2-fluoro-phenyl)-4-[5-(1,2,3,4-tetrahydro-isoquinolin-5-yl)-pyridin-3-yl]-[1,8]naphthyridine], the IC50 (on GST-ALK5; in experiment [1] (setting [2])) was 1 to 10 µM throughout.
Regarding `CC(=O)N1CCc2cc(-c3cncc(-c4cc(-c5cc(Cl)ccc5F)nc5ncccc45)c3)ccc21` [compound 164, 1-(5-{5-[2-(5-Chloro-2-fluoro-phenyl)-[1,8]naphthyridin-4-yl]-pyridin-3-yl}-2,3-dihydro-indol-1-yl)-ethanone], the IC50 (at GST-ALK5; in experiment [1] (setting [2])) was less than 0.1 µM in each case.
Consider `OCCn1cc(-c2cncc(-c3cc(-c4cc(Cl)ccc4F)nc4ncccc34)c2)cn1` [compound 91, 2-(4-{5-[2-(5-Chloro-2-fluoro-phenyl)-[1,8]naphthyridin-4-yl]-pyridin-3-yl}-pyrazol-1-yl)-ethanol], for which the IC50 (at GST-ALK5; in experiment [1] (setting [2])) was less than 0.1 µM throughout.
As to `Fc1ccc(Cl)cc1-c1cc(-c2ccnc(-c3ccccc3)c2)c2cccnc2n1` [compound 20, 2-(5-Chloro-2-fluoro-phenyl)-4-(2-phenyl-pyridin-4-yl)-[1,8]naphthyridine], the IC50 (at GST-ALK5; in experiment [1] (setting [2])) was greater than 10 µM throughout.
`NS(=O)(=O)c1ccc(-c2cncc(-c3cc(-c4ccccc4F)nc4ncccc34)c2)cc1` [compound 78, 4-{5-[2-(2-Fluoro-phenyl)-[1,8]naphthyridin-4-yl]-pyridin-3-yl}-benzenesulfonamide]: the IC50 at GST-ALK5 was less than 0.1 µM; in experiment [1] (setting [2]), 0.1 to 1 µM.
On to `CC(=O)Nc1cccc(-c2cncc(-c3cc(-c4cc(Cl)ccc4F)nc4ncccc34)c2)n1` [compound 115, N-{5′-[2-(5-Chloro-2-fluoro-phenyl)-[1,8]naphthyridin-4-yl]-[2,3′]bipyridinyl-6-yl}-acetamide], for which the IC50 at GST-ALK5 is less than 0.1 µM; in experiment [1] (setting [2]), 0.1 to 1 µM.
Taken in the same sequence, the figures for `Cn1cc(-c2cncc(-c3cc(-c4cc(C(F)(F)F)ccc4F)nc4ncccc34)c2)cn1` [compound 8, 2-(2-Fluoro-5-trifluoromethyl-phenyl)-4-[5-(1-methyl-1H-pyrazol-4-yl)-pyridin-3-yl]-[1,8]naphthyridine] were less than 0.1 µM and 0.1 to 1 µM.
For `Nc1ncc(-c2cnn(C3CCNCC3)c2)cc1-c1cc(-c2cc(Cl)ccc2F)nc2ncccc12` [compound 13, 3-[2-(5-Chloro-2-fluoro-phenyl)-[1,8]naphthyridin-4-yl]-5-(1-piperidin-4-yl-1H-pyrazol-4-yl)-pyridin-2-ylamine dihydrochloride], the IC50 (on GST-ALK5; in experiment [1]) was less than 0.1 µM in each case.
With `Cn1ccc2cc(-c3cncc(-c4cc(-c5cc(Cl)ccc5F)nc5ncccc45)c3)ccc21` [compound 150, 2-(5-Chloro-2-fluoro-phenyl)-4-[5-(1-methyl-1H-indol-5-yl)-pyridin-3-yl]-[1,8]naphthyridine], the IC50 is 0.1 to 1 µM at GST-ALK5 and less than 0.1 µM in experiment [1] (setting [2]).
As to `Fc1ccc(Cl)cc1-c1cc(-c2cncc(-c3cnn(C4CCNCC4)c3)c2)c2cccnc2n1` [compound 11, 2-(5-chloro-2-fluoro-phenyl)-4-[5-(1-piperidin-4-yl-1H-pyrazol-4-yl)-pyridin-3-yl]-[1,8]naphthyridine dihydrochloride], the IC50 (on GST-ALK5; in experiment [1]) was less than 0.1 µM in each case.
